Reference: ChEMBL document CHEMBL4622972 (J Med Chem, 2020)

How the values were obtained:
[1] = 1-octanol-aqueous buffer distribution coefficient, log D of the compound at pH 7.4; format: physicochemical
[2] = Apparent permeability across apical to basolateral side in human Caco2 cells at pH 7.4; format: ADME, cell-based; details: Caco-2, pH 7.4
[3] = Apparent permeability across basolateral to apical side in human Caco2 cells at pH 7.4; format: ADME, cell-based; details: Caco-2, pH 7.4
[4] = Volume of distribution at steady state in iv dosed Harlan-Han Wistar rat; format: ADME, organism-based; details: in vivo, read-out: Vdss
[5] = Oral bioavailability in Harlan-Han Wistar rat; format: ADME, organism-based; details: in vivo
[6] = Volume of distribution at steady state in iv dosed dog; format: ADME, organism-based, Canis lupus familiaris; details: in vivo, read-out: Vdss
[7] = Oral bioavailability in dog; format: ADME, organism-based, Canis lupus familiaris; details: in vivo
[8] = Drug absorption in po dosed hamster; format: ADME, organism-based; details: cricetinae, in vivo
[9] = Drug absorption in po dosed mouse; format: ADME, organism-based; details: in vivo
[10] = Drug absorption in po dosed rat; format: ADME, organism-based; details: in vivo
[11] = Apparent permeability in human jejunum; format: ADME, tissue-based
[12] = Apparent permeability in rat jejunum; format: ADME, tissue-based

Structure (SMILES) | logD [1] | Papp A→B [2] | further results
Cc1ccc2[nH]c(C(=O)N[C@H]3CN(S(=O)(=O)c4ccccc4)C[C@H]3C(=O)NCCN(C)C)cc2c1 (racemic) | 2.3 | – | –
Cc1ccc2[nH]c(C(=O)N[C@H]3CN(S(=O)(=O)c4ccnc(C)c4)C[C@@H]3C(=O)NCCN(C)C)cc2c1 | 1.7 | – | –
Cc1ccc2[nH]c(C(=O)N[C@H]3CN(S(=O)(=O)c4cnccn4)C[C@@H]3C(=O)NCCN(C)C)cc2c1 | 1 | – | –
Cc1ccc2[nH]c(C(=O)N[C@H]3CN(S(=O)(=O)c4cccnc4)C[C@@H]3C(=O)NCCN(C)C)cc2c1 | 1.4 | – | –
Cc1ccc2[nH]c(C(=O)N[C@H]3CN(S(=O)(=O)c4ccccc4)C[C@@H]3C(=O)NCCN(C)C)cc2c1 | 2.1 | – | –
Cc1ccc2[nH]c(C(=O)N[C@H]3CN(S(=O)(=O)c4ccccc4)C[C@@H]3C(=O)NC[C@@H]3CCCN3C)cc2c1 | 2.3 | 0.24 ×10⁻⁶ cm/s | Papp B→A [3]: 19.3 ×10⁻⁶ cm/s
Cc1ccc2[nH]c(C(=O)N[C@H]3CCN(S(=O)(=O)c4ccccc4Cl)C[C@@H]3C(=O)N[C@H]3CCCNC3)cc2c1 | 1.9 | < 0.01 ×10⁻⁶ cm/s | Papp B→A [3]: 1.4 ×10⁻⁶ cm/s
Cc1ccc2[nH]c(C(=O)N[C@H]3CN(S(=O)(=O)c4ccccc4)C[C@@H]3C(=O)N[C@H]3CCCN(C)C3)cc2c1 | 2.7 | 0.3 ×10⁻⁶ cm/s | Papp B→A [3]: 16.3 ×10⁻⁶ cm/s
O=C(N[C@H]1CN(S(=O)(=O)c2ccccc2)C[C@@H]1C(=O)N[C@H]1CCCNC1)c1cc(-c2ccccc2Cl)on1 | 1.9 | 0.31 ×10⁻⁶ cm/s | Vd [4]: 5.5 L/kg; bioavailability [5]: < 1%; Vd [6]: 6.6 L/kg; bioavailability [7]: 40%; Drug absorption [8]: Not Active; Drug absorption [9]: Not Active; Drug absorption [10]: Not Active; Papp [11]: < 1 ×10⁻⁶ cm/s; Papp [12]: < 1 ×10⁻⁶ cm/s
Cc1ccc2[nH]c(C(=O)N[C@@H]3CN(S(=O)(=O)c4ccccc4)C[C@H]3C(=O)NCCN(C)C)cc2c1 | 2.1 | – | –
Cc1ccc2[nH]c(C(=O)N[C@H]3CCN(C(=O)c4cccnc4)C[C@@H]3C(=O)NCCN(C)C)cc2c1 (racemic) | 0.7 | – | –
Cc1ccc2[nH]c(C(=O)N[C@H]3CCN(S(=O)(=O)c4ccccc4Cl)C[C@@H]3C(=O)N[C@H]3CCCN(C)C3)cc2c1 | 3.1 | 0.27 ×10⁻⁶ cm/s | Papp B→A [3]: 15.9 ×10⁻⁶ cm/s
Cc1ccc2[nH]c(C(=O)N[C@H]3CN(S(=O)(=O)c4ccccc4)C[C@@H]3C(=O)N[C@@H]3CCCN(C)C3)cc2c1 | 2.7 | 0.76 ×10⁻⁶ cm/s | Papp B→A [3]: 22.8 ×10⁻⁶ cm/s
Cc1ccc2[nH]c(C(=O)N[C@H]3Cc4ccccc4[C@@H]3C(=O)NCCN(C)C)cc2c1 | 2.4 | – | –
Cc1ccc2[nH]c(C(=O)N[C@H]3CN(S(=O)(=O)c4ccccc4)C[C@@H]3C(=O)NC[C@H]3CCCN3C)cc2c1 | 2.3 | 0.08 ×10⁻⁶ cm/s | Papp B→A [3]: 2.7 ×10⁻⁶ cm/s
Cc1ccc2[nH]c(C(=O)N[C@H]3CN(S(=O)(=O)c4ccccc4)C[C@@H]3C(=O)N[C@@H]3CCCNC3)cc2c1 | 1.3 | 0.04 ×10⁻⁶ cm/s | Papp B→A [3]: 1.6 ×10⁻⁶ cm/s
Cc1ccc2[nH]c(C(=O)N[C@H]3CN(S(=O)(=O)c4ccccc4)C[C@@H]3C(=O)NC[C@H]3CCCN3)cc2c1 | 1 | 0.11 ×10⁻⁶ cm/s | Papp B→A [3]: 15.9 ×10⁻⁶ cm/s
Cc1csc(C(=O)N[C@H]2CN(S(=O)(=O)c3ccccc3)C[C@@H]2C(=O)N[C@H]2CCCNC2)n1 | 0.1 | 0.18 ×10⁻⁶ cm/s | –
Cc1ccc2[nH]c(C(=O)N[C@H]3CN(S(=O)(=O)c4ccccc4)C[C@@H]3C(=O)N[C@H]3CCCNC3)cc2c1 | 1.3 | 0.04 ×10⁻⁶ cm/s | Papp B→A [3]: 2 ×10⁻⁶ cm/s

The next lines start with results.

logD [1] | Papp A→B [2] | Structure (SMILES) | further results
1 | – | Cc1ccc2[nH]c(C(=O)N[C@H]3CN(S(=O)(=O)C4CCOCC4)C[C@@H]3C(=O)NCCN(C)C)cc2c1 | –
1.3 | – | Cc1ccc2[nH]c(C(=O)N[C@H]3CCN(S(=O)(=O)c4cccnc4)C[C@@H]3C(=O)NCCN(C)C)cc2c1 (racemic) | –
1.9 | – | Cc1ccc2[nH]c(C(=O)N[C@H]3CN(S(=O)(=O)c4ccccc4)CC[C@@H]3C(=O)NCCN(C)C)cc2c1 (racemic) | –
1.9 | – | Cc1ccc2[nH]c(C(=O)N[C@H]3CN(S(=O)(=O)c4ccccc4)CC[C@H]3C(=O)NCCN(C)C)cc2c1 (racemic) | –
0.7 | – | Cc1ccc2[nH]c(C(=O)N[C@H]3CN(S(=O)(=O)c4ccnnc4)C[C@@H]3C(=O)NCCN(C)C)cc2c1 | –
1 | – | Cc1ccc2[nH]c(C(=O)N[C@H]3CCN(S(=O)(=O)N4CCOCC4)C[C@@H]3C(=O)NCCN(C)C)cc2c1 (racemic) | –
2.1 | – | Cc1ccc2[nH]c(C(=O)N[C@@H]3CCN(S(=O)(=O)c4ccccc4)C[C@@H]3C(=O)NCCN(C)C)cc2c1 (racemic) | –
2.2 to 2.3 | – | Cc1ccc2[nH]c(C(=O)N[C@H]3CCN(S(=O)(=O)c4ccccc4)C[C@@H]3C(=O)NCCN(C)C)cc2c1 | –
2.3 | – | Cc1ccc2[nH]c(C(=O)N[C@@H]3CCN(S(=O)(=O)c4ccccc4)C[C@H]3C(=O)NCCN(C)C)cc2c1 | –
1.4 | – | Cc1ccc2[nH]c(C(=O)N[C@H]3CN(S(=O)(=O)c4cn(C)nc4C)C[C@@H]3C(=O)NCCN(C)C)cc2c1 | –
1.2 | – | Cc1ccc2[nH]c(C(=O)N[C@H]3CCN(S(=O)(=O)N(C)C)C[C@@H]3C(=O)NCCN(C)C)cc2c1 | –
1 | – | Cc1ccc2[nH]c(C(=O)N[C@H]3CCN(S(=O)(=O)C4CC4)C[C@@H]3C(=O)NCCN(C)C)cc2c1 | –
2.3 | – | Cc1ccc2[nH]c(C(=O)N[C@H]3CCN(S(=O)(=O)N4CCCCC4)C[C@@H]3C(=O)NCCN(C)C)cc2c1 | –
